According to paper PMC9144521 (Viruses, 2022):

Tests used:
[1] = tested on: AdV5; experiment: Anti-AdV activity assay (IFA of hexon), secondary screen, AdV5; assay type: cell-based, Human adenoviruses type 5; conditions: for Selective Index AdV5: CC50/EC50, Vero cells; for EC50: 48 h, IFA of hexon, 0.02 to 5 μM
[2] = in vitro; conditions: African green monkey
[3] = tested on: adenovirus 5; set-up: method as in ref 28, 31 = [28]; conditions: cited from earlier work
[4] = tested on: AdV3; experiment: Anti-AdV activity assay (IFA of hexon), secondary screen, AdV3; assay type: cell-based, Human adenoviruses type 3; conditions: for Selective Index AdV3: CC50/EC50, Vero cells; for EC50: 48 h, IFA of hexon, 0.02 to 5 μM
[5] = tested on: Aurora A/B/C; conditions: cited from earlier work
[6] = tested on: Aurora A; set-up: method as in ref 25 = [25]; conditions: cited from earlier work
[7] = tested on: Vero cells

Compound	EC50 ([1]; Vero cells) [nM]	EC50 ([4]; Vero cells) [nM]	Selective Index AdV5 [1]	CC50 at 48 h [2] [nM]	reported inhibition of replication of adenovirus 5 [3]	Selective Index AdV3 [4]	inhibition of AdV5 (in words) ([1]; Vero cells)	selectivity for Aurora kinases than p38α, Tyk2, and JNK2 [5] [fold]	inhibition of AdV3 (in words) ([4]; Vero cells)	selectivity for Aurora A than Aurora B [6] [fold]	CC50 [7] [nM]	CC50 at 48 h ([2]; Vero cells) [nM]
C=CCNC1=C2C[C@@H](C)C[C@H](OC)[C@H](O)[C@@H](C)/C=C(\C)[C@H](OC(N)=O)[C@@H](OC)/C=C\C=C(/C)C(=O)NC(=CC1=O)C2=O [17-AAG]	> 5000	500	>0.46	> 5000	inhibit the replication of adenovirus 5	>9.93						
Cc1csc(-c2nnc(Nc3ccc(Oc4ncccc4-c4ccnc(N)n4)cc3)c3ccccc23)c1 [AMG-900]	> 5000	20		3690		226.12	but not AdV5	> 10	potently inhibits only AdV3			
Cc1cc(Nc2cc(N3CCN(C)CC3)nc(/C=C/c3ccccc3)n2)n[nH]1.O=C(O)C(O)C(O)C(=O)O [ENMD-2076 L-(+)-Tartaric acid]	1390	1350								25	4340	
Cl.Cl.O=S(=O)(NCCNC/C=C/c1ccc(Br)cc1)c1cccc2cnccc12 [H 89 2HCl]	> 5000	310				>15.97					> 5000	
O=C(/C=C\n1cnc(-c2cc(C(F)(F)F)cc(C(F)(F)F)c2)n1)N1CC(F)(F)C1 [KPT-276]	970	100	>5.13			>50.46					> 5000	
COc1cc(Nc2ncc(F)c(Nc3ccc4c(n3)NC(=O)C(C)(C)O4)n2)cc(OC)c1OC [R406]	> 5000	940				>5.32					> 5000	
c1cncc(CN2CCC(n3ncc4c(N5CCOCC5)nc(-c5ccc6[nH]ccc6c5)nc43)CC2)c1 [WAY-600]	1090	560	2.86			5.51					3110	

Stronger by EC50 ([1]; Vero cells), values ahead:

EC50 ([1]; Vero cells) [nM]	EC50 ([4]; Vero cells) [nM]	Compound	Selective Index AdV5 [1]	CC50 at 48 h [2] [nM]	reported inhibition of replication of adenovirus 5 [3]	Selective Index AdV3 [4]	inhibition of AdV5 (in words) ([1]; Vero cells)	selectivity for Aurora kinases than p38α, Tyk2, and JNK2 [5] [fold]	inhibition of AdV3 (in words) ([4]; Vero cells)	selectivity for Aurora A than Aurora B [6] [fold]	CC50 [7] [nM]	CC50 at 48 h ([2]; Vero cells) [nM]
590	260	COC1(c2sc3c(N4CCOCC4)nc(-c4cnc(N)nc4)nc3c2C)COC1 [GNE-317]									> 5000	
30	20	COc1cccc(-c2cc(F)ccc2[C@H]2Cc3nc(N)nc(C)c3C(=O)N2)n1 [HSP990]	148.47			205.19					4310	
610	150	O=C(/C=C\n1cnc(-c2cc(C(F)(F)F)cc(C(F)(F)F)c2)n1)NNc1ccccn1 [KPT-335]	3.14		inhibit the replication of adenovirus 5	12.65						1900
120	60	COc1ccc(-c2cc3c(C)nc(N)nc3n([C@H]3CC[C@H](OCCO)CC3)c2=O)cn1 [PF-04691502]	>41.46			>86.01					> 5000	
160	180	N#Cc1c(Oc2ccc(F)c(NC(=O)Cc3cccc(C(F)(F)F)c3)c2)ccc2nc(NC(=O)C3CC3)sc12 [TAK-632]	12.3			11.15					1990	
80	30	CCNC(=O)c1[nH]nc(-c2cc(Cl)c(O)cc2O)c1-c1ccc(OC)cc1 [VER-49009]	>60.00			>186.00					> 5000	
150	60	CNC(=O)Nc1ccc(-c2nc(N3CC4CCC(C3)O4)c3cnn(C4CCC5(CC4)OCCO5)c3n2)cc1 [WYE-125132]	>32.47			>89.17					> 5000	
480	170	CC[C@@H](C)Nc1cc(C(=O)N[C@H]2C[C@H]3CC[C@@H](C2)N3c2ccc(C(=O)C3CC3)cn2)c(C)cc1C(N)=O [XL888]	>10.33			>29.69					> 5000	
